Results on two compounds are retold here after patent US20250092017A1, “2-PIPERIDYL OR 2-PYRAZOLYL SUBSTITUTED PYRIMIDINE COMPOUND SERVING AS EGFR INHIBITOR” (SUZHOU PUHE BIOPHARMA CO., LTD., priority 2022, published 2025).

One series has as its target EGFR (wild-type) (Homo sapiens, UniProt P00533). The series can be described thus: MSA (Mobility Shift Assay) kinase activity, EGFR wild type. The note with it: read-out: EGFR wt/ IC50/nM. The format is biochemical. Summed up:
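Kinase preincubated with compound 10 min at room temperature, then reaction started with ATP plus substrate in 1x kinase buffer and run at room temperature. Substrate-to-product conversion read by mobility shift; % inhibition normalised to no-enzyme and no-compound controls, IC50 from variable-slope four-parameter fit.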

The target in series [1] is T1, Ba/F3-TEL-EGFR-L858R-C797S (Homo sapiens, UniProt P00533, C797S/L858R, cells depend on it).
T1 construct: fused on or other part: N-terminal TEL (ETV6) oligomerising part fused to the EGFR intracellular/kinase part; P41212 (Transcription factor ETV6)
Put plainly: CellTiter-Glo proliferation, Ba/F3-TEL-EGFR-L858R-C797S. The format is cell-based. The note with it: 72 hours, read-out: Ba/F3-TEL-EGFR-L858R-C797S IC50/nM. A digest of the protocol:
(§1)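 Ba/F3 lines dependent on the indicated EGFR variants were treated with compounds at a final DMSO concentration of 0.1% at 37 °C, 5% CO2. Viability was read by CellTiter-Glo luminescence, and inhibition rate was normalised to DMSO-treated cells (max) and medium-only wells (min). IC50 came from inhibition curves.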
For orientation: In ATP-based viability assays light output follows the ATP content of the culture.

Series [2] concerns the target Ba/F3-FL-EGFR-L858R-T790M-C797S (Homo sapiens, UniProt P00533, T790M/C797S/L858R, cells depend on it). The series can be described thus: CellTiter-Glo proliferation, Ba/F3-FL-EGFR-L858R-T790M-C797S. Type of series: cell-based. The note with it: 72 hours, read-out: Ba/F3-FL-EGFR-L858R-T790M-C797S IC50/nM. A digest of the protocol:
as §1

For series [3], the system named is Ba/F3-FL-EGFR-del19-C797S. Put plainly: CellTiter-Glo proliferation, Ba/F3-FL-EGFR-del19-C797S. Type of series: cell-based. The note with it: 72 h, proliferation, 72 hours, CellTiter-Glo; read-out: Ba/F3-FL-EGFR-del19-C797S IC50/nM. Summed up: as §1
Series [4] can be described thus: Liver microsome stability test, human. Type of series: in vitro ADME. The note with it: human liver microsomes 0.5 mg/ml, compound 1 μM, NADPH 1 mM, within 60 minutes. The procedure:
(§2) The compounds of the present disclosure were subjected to a liver microsome stability test. The compounds to be tested were co-incubated with liver microsomes of different species with or without the addition of NADPH. The final concentration of the compounds to be tested in the test system was 1 μM. The final concentration of NADPH was 1 mM, and the final concentration of liver microsomes was 0.5 mg/ml.
On the technique in general: Liver microsomes are vesicles of endoplasmic reticulum, rich in cytochrome P450 enzymes.

A short description of series [5]: Liver microsome stability test, mouse. The note with it: mouse liver microsomes 0.5 mg/ml, compound 1 μM, NADPH 1 mM, within 60 minutes. Type of series: in vitro ADME. On the procedure: as §2
Series [6] deals with BaF3 (del19/T790M1C797S) tumor cells. The series can be described thus: In vivo efficacy assay in BALB/c nude mice, subcutaneous BaF3 tumor. The note with it: for TGI: based on final tumor volume. The procedure: In vivo efficacy assay in BALB/c nude mice. Details were as follows:
BaF3 (del19/T790M1C797S) tumor cells were cultured and inoculated into 6-8 weeks old female BALB/c nude mice (weighing about 20 g), with all mice being subcutaneously inoculated. The mice were cultured in an SPF-grade experimental environment, and all mice had free access to commercially certified standard diets. When the average tumor volume of the mice grew to about 150 mm^3, the test compound was orally administered daily. The dosage was as follows: blank group vehicle (DMSO/Solutol/H2O, 5/10/85). […] The tumor volume was measured three times a week with a two-dimensional caliper, and the animals were weighed every day. […] The volume calculation formula is: V=1/2a*b^2, where a represents the long diameter of the tumor, and b represents the short diameter of the tumor.

Setting [7] is: 100 mg/kg BID oral (50 mg/kg for the first 4 days, 100 mg/kg from the 5th day), after 13 days.

Chain of Ba/F3-FL-EGFR-L858R-T790M-C797S (P00533 whole entry T790M/C797S/L858R): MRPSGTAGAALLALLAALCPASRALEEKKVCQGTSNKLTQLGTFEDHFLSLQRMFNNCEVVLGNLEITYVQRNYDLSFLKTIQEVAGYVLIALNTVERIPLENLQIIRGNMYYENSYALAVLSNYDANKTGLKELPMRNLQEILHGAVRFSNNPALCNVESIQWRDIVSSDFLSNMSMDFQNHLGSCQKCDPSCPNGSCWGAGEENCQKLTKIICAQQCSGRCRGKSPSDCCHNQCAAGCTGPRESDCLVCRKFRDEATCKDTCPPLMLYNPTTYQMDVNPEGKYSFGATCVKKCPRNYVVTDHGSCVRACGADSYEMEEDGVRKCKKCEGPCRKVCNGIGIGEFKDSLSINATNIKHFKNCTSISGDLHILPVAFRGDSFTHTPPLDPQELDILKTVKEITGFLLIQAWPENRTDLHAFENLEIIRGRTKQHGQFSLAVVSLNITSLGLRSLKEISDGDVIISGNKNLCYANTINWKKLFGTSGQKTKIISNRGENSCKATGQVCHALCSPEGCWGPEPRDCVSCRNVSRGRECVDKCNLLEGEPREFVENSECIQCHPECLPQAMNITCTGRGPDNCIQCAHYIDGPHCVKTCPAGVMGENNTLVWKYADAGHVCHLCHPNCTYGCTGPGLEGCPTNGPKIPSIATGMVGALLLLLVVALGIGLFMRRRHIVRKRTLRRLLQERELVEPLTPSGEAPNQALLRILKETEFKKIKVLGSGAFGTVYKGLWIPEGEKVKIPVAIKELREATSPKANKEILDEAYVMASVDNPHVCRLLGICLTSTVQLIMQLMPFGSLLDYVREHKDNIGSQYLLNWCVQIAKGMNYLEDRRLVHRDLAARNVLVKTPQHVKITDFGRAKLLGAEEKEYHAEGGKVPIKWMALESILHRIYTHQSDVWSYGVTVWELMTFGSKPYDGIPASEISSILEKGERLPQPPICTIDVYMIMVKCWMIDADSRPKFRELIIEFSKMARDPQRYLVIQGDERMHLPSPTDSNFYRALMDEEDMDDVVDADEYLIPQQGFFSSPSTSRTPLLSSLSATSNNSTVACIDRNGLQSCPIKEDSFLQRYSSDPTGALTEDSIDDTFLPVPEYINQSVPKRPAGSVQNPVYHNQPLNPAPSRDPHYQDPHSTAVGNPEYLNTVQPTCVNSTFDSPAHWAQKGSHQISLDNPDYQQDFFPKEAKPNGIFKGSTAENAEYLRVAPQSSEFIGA
Chain of EGFR (wild-type) (P00533 25-1210): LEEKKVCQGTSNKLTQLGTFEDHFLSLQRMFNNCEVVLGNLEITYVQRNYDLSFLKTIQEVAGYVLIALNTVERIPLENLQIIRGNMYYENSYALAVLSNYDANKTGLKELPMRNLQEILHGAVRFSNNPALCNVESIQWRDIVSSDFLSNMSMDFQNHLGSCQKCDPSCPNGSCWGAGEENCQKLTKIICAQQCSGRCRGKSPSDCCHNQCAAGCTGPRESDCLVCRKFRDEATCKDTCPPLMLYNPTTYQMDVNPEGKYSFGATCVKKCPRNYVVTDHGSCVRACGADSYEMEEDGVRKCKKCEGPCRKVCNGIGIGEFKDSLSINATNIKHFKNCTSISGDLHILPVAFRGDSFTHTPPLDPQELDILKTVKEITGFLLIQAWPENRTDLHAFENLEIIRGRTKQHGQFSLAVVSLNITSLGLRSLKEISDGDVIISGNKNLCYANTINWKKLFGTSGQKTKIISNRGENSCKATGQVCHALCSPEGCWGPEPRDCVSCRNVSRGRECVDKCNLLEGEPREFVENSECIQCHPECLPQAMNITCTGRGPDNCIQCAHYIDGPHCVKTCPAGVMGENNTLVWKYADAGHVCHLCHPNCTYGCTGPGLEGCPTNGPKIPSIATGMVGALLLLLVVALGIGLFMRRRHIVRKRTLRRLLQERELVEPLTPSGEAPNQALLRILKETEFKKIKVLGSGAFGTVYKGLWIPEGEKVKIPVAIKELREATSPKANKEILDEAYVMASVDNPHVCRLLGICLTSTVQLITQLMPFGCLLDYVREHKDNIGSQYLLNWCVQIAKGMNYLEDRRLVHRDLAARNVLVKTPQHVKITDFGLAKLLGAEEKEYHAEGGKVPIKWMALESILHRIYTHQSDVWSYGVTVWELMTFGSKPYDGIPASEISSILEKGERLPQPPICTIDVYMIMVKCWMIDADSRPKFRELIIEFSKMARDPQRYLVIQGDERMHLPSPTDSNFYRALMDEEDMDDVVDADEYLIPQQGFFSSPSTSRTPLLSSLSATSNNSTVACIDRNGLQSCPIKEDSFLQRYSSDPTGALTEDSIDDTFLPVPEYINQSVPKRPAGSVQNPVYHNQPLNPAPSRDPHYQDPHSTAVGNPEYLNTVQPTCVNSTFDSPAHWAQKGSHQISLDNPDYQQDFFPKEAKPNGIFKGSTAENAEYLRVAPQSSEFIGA
T1 sequence (P00533 whole entry C797S/L858R, the tested form may be a part): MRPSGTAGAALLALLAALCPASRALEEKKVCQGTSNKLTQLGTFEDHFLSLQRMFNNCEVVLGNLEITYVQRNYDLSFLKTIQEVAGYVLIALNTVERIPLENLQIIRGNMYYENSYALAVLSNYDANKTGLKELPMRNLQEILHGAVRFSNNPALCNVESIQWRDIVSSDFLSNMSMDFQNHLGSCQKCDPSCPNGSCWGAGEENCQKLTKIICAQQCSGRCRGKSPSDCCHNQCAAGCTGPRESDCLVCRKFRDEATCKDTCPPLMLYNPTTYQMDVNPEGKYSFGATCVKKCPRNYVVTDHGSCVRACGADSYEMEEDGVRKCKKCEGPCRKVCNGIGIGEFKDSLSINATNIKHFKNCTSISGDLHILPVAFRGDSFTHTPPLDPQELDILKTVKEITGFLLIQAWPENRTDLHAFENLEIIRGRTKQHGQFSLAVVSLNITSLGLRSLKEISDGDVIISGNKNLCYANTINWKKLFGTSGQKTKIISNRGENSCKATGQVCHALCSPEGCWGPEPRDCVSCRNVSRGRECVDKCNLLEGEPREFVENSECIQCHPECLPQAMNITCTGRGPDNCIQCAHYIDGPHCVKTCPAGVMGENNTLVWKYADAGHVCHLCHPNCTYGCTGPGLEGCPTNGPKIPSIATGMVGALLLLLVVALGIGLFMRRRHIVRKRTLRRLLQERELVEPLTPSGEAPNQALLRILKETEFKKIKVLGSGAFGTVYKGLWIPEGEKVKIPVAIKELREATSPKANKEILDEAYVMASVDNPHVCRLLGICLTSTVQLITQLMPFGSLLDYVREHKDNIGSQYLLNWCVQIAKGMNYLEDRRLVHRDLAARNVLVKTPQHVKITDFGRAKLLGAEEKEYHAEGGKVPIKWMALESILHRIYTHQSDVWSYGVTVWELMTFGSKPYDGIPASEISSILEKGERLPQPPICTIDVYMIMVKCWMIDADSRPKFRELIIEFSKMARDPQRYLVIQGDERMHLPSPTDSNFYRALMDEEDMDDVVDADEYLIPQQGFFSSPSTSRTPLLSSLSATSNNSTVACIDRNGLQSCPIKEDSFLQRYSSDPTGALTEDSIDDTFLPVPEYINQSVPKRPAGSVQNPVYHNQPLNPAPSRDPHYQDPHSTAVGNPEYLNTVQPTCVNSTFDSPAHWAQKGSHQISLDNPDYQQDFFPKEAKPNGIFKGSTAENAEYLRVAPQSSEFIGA

On to `CC(C)c1ccc(N2C[C@H](CS(C)(=O)=O)[C@H]2C)c2cnc(Nc3ccnc(-c4cnn(S(=O)(=O)C5CC5)c4)n3)cc12` [Compound H12], for which the IC50 at EGFR (wild-type) is 1.9 nM; in series [3] it was 4.3 nM. The GI50 in series [1] turned out to be 5.8 nM; in series [2], 16 nM. Moreover, the results for the CLint scaled at 1 μM in series [4] and in series [5] were 14.2 mL/min/kg and 196 mL/min/kg, respectively. The “Tumor volume (mm^3)” value in series [6] (setting [7]) is on record as 1341 mm^3. Further, in series [6] (setting [7]), the TGI – broadly, how far tumour growth fell short of that in controls – is reported as 68%.

Turning to `CC(C)c1ccc(N2CC(N(C)S(C)(=O)=O)C2)c2cnc(Nc3ccnc(N4CC[C@@H](O)[C@@H](F)C4)n3)cc12` [Compound P39a], the IC50 at EGFR (wild-type) was determined as 9.4 nM; in series [3], 52 nM. Further, the results for the GI50 in series [1] and in series [2] were 14 nM and 8.8 nM, respectively. The CLint scaled – broadly, the capacity of the preparation to metabolise the compound, expressed as a volume cleared per time – at 1 μM in series [4] was < 8.6 mL/min/kg; in series [5], 231 mL/min/kg. For the same compound, in series [6] (100 mg/kg, BID, oral, after 13 consecutive days of administration), the “Tumor volume (mm^3)” value was 945 mm^3. The TGI in series [6] (100 mg/kg, BID, oral, after 13 consecutive days) is listed as 79%.
